Laboratory results: ChEMBL document CHEMBL1130735, “A paclitaxel analogue with a 2(3-->20)abeotaxane skeleton: synthesis and biological evaluation” (Bioorg Med Chem Lett, 1998)
In brackets after ≈: the same amount, converted by molar mass.

Tests used:
Type in all cases: functional, cell-based
P388 = assay: Cytotoxicity was evaluated against P388 mouse lymphoma cells
[1] = Cytotoxicity was evaluated against MEL28 melanoma cells; conditions: Homo sapiens, SK-MEL-28
[2] = Cytotoxicity was evaluated against […] cells
HT-29 = assay: Cytotoxicity was evaluated against HT-29 human colon adenocarcinoma cells

Compound	IC50 (P388)	IC50 [1]	IC50 [2]	IC50 (HT-29)
CC(=O)O[C@H]1C[C@H]2[C@@H](OC(C)=O)/C=C3\C[C@](C)(C(=O)[C@H](O)C(=C1C)C2(C)C)[C@@H](O)C[C@@H]3O	> 10 µg/mL	> 10 µg/mL	> 10 µg/mL	> 10 µg/mL
CC(=O)O[C@H]1C(=O)[C@@]2(C)[C@H]([C@H](OC(=O)c3ccccc3)[C@]3(O)C[C@H](OC(=O)[C@H](O)[C@@H](NC(=O)c4ccccc4)c4ccccc4)C(C)=C1C3(C)C)[C@]1(OC(C)=O)CO[C@@H]1C[C@@H]2O [PACLITAXEL]	0.2 µg/mL (≈ 0.234 µM)	0.002 µg/mL (≈ 0.00234 µM)	0.002 µg/mL (≈ 0.00234 µM)	0.002 µg/mL (≈ 0.00234 µM)
CC1=C2[C@@H](O)C(=O)[C@@]3(C)CC(C[C@H](OC(=O)c4ccccc4)[C@H](C[C@@H]1OC(=O)[C@H](O)[C@H](NC(=O)c1ccccc1)c1ccccc1)C2(C)C)[C@@H](O)C[C@@H]3O	6 µg/mL (≈ 8.11 µM)	6 µg/mL (≈ 8.11 µM)	6 µg/mL (≈ 8.11 µM)	6 µg/mL (≈ 8.11 µM)
